According to patent US11897862B2 (Gilead Sciences, Inc., priority 2022, dated 2024):

Assays:
[1] = biological target: IKZF2 (Homo sapiens, UniProt Q96SW2+Q9UKS7); assay: HEK293 HiBiT in vitro degradation of IKZF2; format: cell-based; parameters: expressed in transfected cells; conditions: for DC50 / IKZF2 Dmax: HEK293 HiBiT; for DC50: 18-24 hr incubation, normalized to DMSO control, read-out: IKZF2 EC50; for IKZF2 Dmax / Dmax: maximum degradation at the highest concentration tested; for Dmax: HEK293, HEK293 HiBiT
Sequence of IKZF2 (Q9UKS7 1-500 isoform Q9UKS7-2): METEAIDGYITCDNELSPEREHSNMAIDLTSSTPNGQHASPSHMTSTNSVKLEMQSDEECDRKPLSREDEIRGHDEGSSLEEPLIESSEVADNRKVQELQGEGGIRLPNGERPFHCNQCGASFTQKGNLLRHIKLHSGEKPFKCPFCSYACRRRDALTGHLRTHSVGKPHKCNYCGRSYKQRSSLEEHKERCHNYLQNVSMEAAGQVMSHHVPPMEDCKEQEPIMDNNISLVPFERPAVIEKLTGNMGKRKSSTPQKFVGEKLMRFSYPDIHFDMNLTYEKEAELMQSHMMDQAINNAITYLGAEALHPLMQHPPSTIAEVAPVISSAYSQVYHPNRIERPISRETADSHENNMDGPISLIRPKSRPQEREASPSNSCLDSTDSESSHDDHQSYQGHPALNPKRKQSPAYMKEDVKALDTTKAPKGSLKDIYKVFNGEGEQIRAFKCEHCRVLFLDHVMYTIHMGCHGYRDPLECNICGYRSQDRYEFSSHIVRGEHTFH
Sequence of IKZF2 (Q96SW2 whole entry): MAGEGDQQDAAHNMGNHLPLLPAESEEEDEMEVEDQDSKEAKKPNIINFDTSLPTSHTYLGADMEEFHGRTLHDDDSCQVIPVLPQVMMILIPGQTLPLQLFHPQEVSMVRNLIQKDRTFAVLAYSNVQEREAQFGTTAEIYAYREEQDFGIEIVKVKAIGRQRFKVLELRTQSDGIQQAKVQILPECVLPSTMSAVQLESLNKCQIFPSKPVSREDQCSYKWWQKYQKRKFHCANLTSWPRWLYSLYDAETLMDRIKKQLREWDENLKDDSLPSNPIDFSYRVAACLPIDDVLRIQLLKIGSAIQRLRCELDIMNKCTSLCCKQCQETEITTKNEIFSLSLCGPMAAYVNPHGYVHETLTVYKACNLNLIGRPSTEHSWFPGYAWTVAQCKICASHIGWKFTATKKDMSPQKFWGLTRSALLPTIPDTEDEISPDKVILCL
Sequence of IKZF2 (Q16531 whole entry partner): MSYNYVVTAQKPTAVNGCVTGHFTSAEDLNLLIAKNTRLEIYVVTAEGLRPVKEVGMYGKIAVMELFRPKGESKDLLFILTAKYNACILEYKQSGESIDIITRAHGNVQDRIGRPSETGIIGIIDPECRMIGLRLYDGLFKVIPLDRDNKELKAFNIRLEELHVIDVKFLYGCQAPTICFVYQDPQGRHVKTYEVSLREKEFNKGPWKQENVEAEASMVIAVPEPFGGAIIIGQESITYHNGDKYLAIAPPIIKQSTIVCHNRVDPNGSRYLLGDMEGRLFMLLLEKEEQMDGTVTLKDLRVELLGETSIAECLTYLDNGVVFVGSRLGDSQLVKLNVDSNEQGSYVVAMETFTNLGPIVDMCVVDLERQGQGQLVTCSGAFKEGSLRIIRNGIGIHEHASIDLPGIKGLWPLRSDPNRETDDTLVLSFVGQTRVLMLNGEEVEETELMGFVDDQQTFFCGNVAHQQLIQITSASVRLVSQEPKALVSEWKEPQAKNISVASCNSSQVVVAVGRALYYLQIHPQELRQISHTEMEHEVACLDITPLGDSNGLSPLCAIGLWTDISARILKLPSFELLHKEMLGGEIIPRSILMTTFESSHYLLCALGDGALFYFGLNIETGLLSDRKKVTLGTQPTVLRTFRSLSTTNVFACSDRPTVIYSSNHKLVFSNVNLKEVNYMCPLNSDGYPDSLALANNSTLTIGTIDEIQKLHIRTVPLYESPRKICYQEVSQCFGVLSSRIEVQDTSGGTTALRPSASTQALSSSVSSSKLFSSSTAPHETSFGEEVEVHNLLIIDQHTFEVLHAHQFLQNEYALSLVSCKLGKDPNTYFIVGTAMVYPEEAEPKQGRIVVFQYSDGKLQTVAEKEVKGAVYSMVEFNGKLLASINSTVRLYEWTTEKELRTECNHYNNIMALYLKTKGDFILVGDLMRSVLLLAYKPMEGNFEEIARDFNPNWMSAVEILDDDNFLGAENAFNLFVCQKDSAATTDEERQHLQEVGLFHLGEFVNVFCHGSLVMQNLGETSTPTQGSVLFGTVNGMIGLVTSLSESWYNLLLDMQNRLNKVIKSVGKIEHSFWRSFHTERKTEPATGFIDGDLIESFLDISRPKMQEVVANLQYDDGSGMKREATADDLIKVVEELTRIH
Method: (§1) In vitro degradation of IKZF1, IKZF2, and SALL4 was measured using HiBiT protein tagging and detection technology (Promega).
(§2) HiBit technology was used to develop the quantitative assays to measure the cellular IKZFs level by tagging an 11 amino acid HiBit peptides […] to the protein of interest. Reporter plasmids were generated by fusing a linker sequence ([…]) followed by the HiBit tag at the C-terminus of IKZF1, IKZF2, and SALL4. The fusion fragments were subsequently cloned into pcDNA5 pcDNA™5/FRT/TO plasmids (Thermo Fisher, cat #V652020) downstream of the tetracycline operator. The resulting plasmids were co-transfected with pOG44 Flp-Recombinase Expression Vector (Thermo Fisher, cat #V600520) into Flp-In™ T-REx HEK293 line (Thermo Fisher, cat #R78077) and a stable cell pool was selected by adding 100 µg/ml of Hygromycin (Thermo Fisher, cat #10687010). The reporter cell enabled Tet-On inducible reporter expression from a single copy of the integrated gene.
(§3) On Day 1, Cells were grown to ˜80% confluency in tissue culture medium (DMEM Glutamax (Gibco10569), 10% Tet free FBS (Takara 631106), and PenStrep Glutamin (Gibco 10378)) in tissue culture flasks. Doxycycline was then added to a final concentration of […] to induce reporter expression at 37° C. overnight.
(§4) On Day 2, 125 nL of serially-diluted solution of testing compounds were dispensed into 384-well white solid assay plates via ECHO acoustic liquid handler. Cells were lifted by 0.25% Trypsin (Gibco 25200) then pelleted by centrifugation (Beckman Avanti J-E) at 500×g for 5 min. Cell pellets were resuspended in TC medium at the concentration of 3e5/mL and 25 μL of cell suspension were added into each well of compound-spotted plates. The plates were returned to a 37° C. incubator overnight (18-24 hr).
(§5) On Day 3, assay plates were removed from the tissue culture incubator and 25 μL of Nano-Glo lytic detection system (Promega, cat #N3030) was added to each well. Plates were incubated at r.t. for 3 min with shaking, and luminescence was read using an Envision reader (Perkin Elmer).
(§6) To assess the IKZF1, IKZF2, and SALL4 degrader potential of exemplified compounds of this disclosure and certain Reference Compounds EC50 and Dmax values were determined for the compounds of Examples 1 to 383 and Reference Compounds A-1, B-1, B-2, B-3, B-4, and C-1 in the HiBiT assays. Asterisks (*) indicate examples for which the data shown represents an average of n≥3.

[2] = biological target: T1, IKZF1 (Homo sapiens, UniProt Q13422+Q96SW2); assay: HEK293 HiBiT in vitro degradation of IKZF1; format: cell-based; conditions: for DC50 / IKZF1 Dmax: HEK293 HiBiT; for DC50: 18-24 hr incubation, normalized to DMSO control, read-out: IKZF1 EC50; for IKZF1 Dmax / Dmax: maximum degradation at the highest concentration tested; for Dmax: HEK293, HEK293 HiBiT
T1 construct: expressed in transfected cells
T1 sequence (Q13422 whole entry): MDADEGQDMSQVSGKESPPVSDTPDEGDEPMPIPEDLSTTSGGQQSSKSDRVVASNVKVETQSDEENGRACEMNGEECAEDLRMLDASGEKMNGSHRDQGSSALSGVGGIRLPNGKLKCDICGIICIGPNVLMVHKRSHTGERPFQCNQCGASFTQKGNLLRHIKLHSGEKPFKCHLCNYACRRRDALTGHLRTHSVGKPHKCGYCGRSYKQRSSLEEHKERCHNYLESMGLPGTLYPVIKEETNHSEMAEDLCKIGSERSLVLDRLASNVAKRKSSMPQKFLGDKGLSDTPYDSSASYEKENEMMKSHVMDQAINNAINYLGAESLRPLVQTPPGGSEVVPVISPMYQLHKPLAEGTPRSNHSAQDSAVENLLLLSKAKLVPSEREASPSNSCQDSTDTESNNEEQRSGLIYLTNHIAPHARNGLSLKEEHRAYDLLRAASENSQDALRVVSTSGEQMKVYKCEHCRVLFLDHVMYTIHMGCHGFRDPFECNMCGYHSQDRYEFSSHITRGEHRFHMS
T1 sequence (Q96SW2 whole entry): as the sequence (Q96SW2 whole entry) above
T1 sequence (Q16531 whole entry partner): as the sequence (Q16531 whole entry partner) above
Method: as §1, §2, §3, §4, §5, §6

Row | SMILES | DC50 [1] [nM] | IKZF2 Dmax [1] [%] | DC50 [2] [nM] | Dmax [1] [%] | IKZF1 Dmax [2] [%] | Dmax [2] [%]
1 | O=C1CCC(N2Cc3c(ccc(C[C@H]4OCCC[C@@H]4NC4CCCOC4)c3F)C2=O)C(=O)N1 (single isomer, unassigned) [Example 262] | 72 | – | > 1000 | 85 | – | –
2 | O=C1CCC(N2Cc3c(ccc(C[C@H]4OCCC[C@@H]4NC4CCCOC4)c3F)C2=O)C(=O)N1 (single isomer, unassigned) [Example 263] | 95 | 85 | > 1000 | – | – | –
3 | N#CC1CCC(N[C@H]2CCCC[C@@H]2Cc2ccc3c(c2)CN(C2CCC(=O)NC2=O)C3=O)CC1 (single isomer, unassigned) [Example 268] | 6 | 98 | 76 | – | 62 | –
4 | N#CCC1CCC(N[C@H]2CCCC[C@@H]2Cc2ccc3c(c2)CN(C2CCC(=O)NC2=O)C3=O)CC1 (single isomer, unassigned) [Example 270] | 8 | 98 | 179 | – | 22 | –
5 | CC1(C)OCCC1N[C@H]1CCCC[C@@H]1Cc1ccc2c(c1)CN(C1CCC(=O)NC1=O)C2=O (single isomer, unassigned) [Example 273] | 23 | – | > 1000 | 93 | – | –
6 | CC1(C)OCCC1N[C@H]1CCCC[C@@H]1Cc1ccc2c(c1)CN(C1CCC(=O)NC1=O)C2=O (single isomer, unassigned) [Example 274] | 12 | 97 | 102 | – | – | 35
7 | O=C1CCC(N2Cc3c(ccc(C[C@H]4OCCC[C@@H]4NC4CCC(C(F)F)CC4)c3F)C2=O)C(=O)N1 (single isomer, unassigned) [Example 282] | 7 | – | > 1000 | 95 | – | –
8 | CC(C)OC1CCC(N[C@H]2CCCO[C@@H]2Cc2ccc3c(c2F)CN(C2CCC(=O)NC2=O)C3=O)CC1 (single isomer, unassigned) [Example 285] | 8 | 94 | 124 | – | – | 37
9 | O=C1CCC(N2Cc3cc(C[C@H]4CCCC[C@@H]4NC4CCC45COC5)ccc3C2=O)C(=O)N1 (single isomer, unassigned) [Example 286] | 27 | – | 223 | 96 | – | 33
10 | CCC(C)N[C@H]1CCCO[C@@H]1Cc1ccc2c(c1F)CN(C1CCC(=O)NC1=O)C2=O (single isomer, unassigned) [Example 292] | 7 | – | > 1000 | 94 | – | –
11 | CCC(C)N[C@H]1CCCO[C@@H]1Cc1ccc2c(c1F)CN(C1CCC(=O)NC1=O)C2=O (single isomer, unassigned) [Example 293] | 8 | 94 | > 1000 | – | – | –
12 | O=C1CCC(N2Cc3c(ccc(C[C@H]4OCCC[C@@H]4NC4CCOC4)c3F)C2=O)C(=O)N1 (single isomer, unassigned) [Example 296] | 105 | – | > 1000 | 86 | – | –
13 | O=C1CCC(N2Cc3c(ccc(C[C@H]4OCCC[C@@H]4NC4CCOC4)c3F)C2=O)C(=O)N1 (single isomer, unassigned) [Example 297] | 101 | 84 | > 1000 | – | – | –
14 | CC(N[C@H]1CCCO[C@@H]1Cc1ccc2c(c1F)CN(C1CCC(=O)NC1=O)C2=O)C1CCOCC1 (single isomer, unassigned) [Example 298] | 55 | 76 | > 1000 | – | – | –
15 | COC1(C)CCC(N[C@H]2CCCO[C@@H]2Cc2ccc3c(c2F)CN(C2CCC(=O)NC2=O)C3=O)CC1 (single isomer, unassigned) [Example 317] | 6 | 94 | 243 | – | – | 33
16 | O=C1CCC(N2Cc3c(ccc(C[C@H]4OCCC[C@@H]4NC4CCC(OC(F)F)CC4)c3F)C2=O)C(=O)N1 (single isomer, unassigned) [Example 326] | 7 | – | 261 | 95 | – | 40

Continued by falling DC50 [1], values first:

Row | DC50 [1] [nM] | IKZF2 Dmax [1] [%] | DC50 [2] [nM] | Dmax [1] [%] | IKZF1 Dmax [2] [%] | Dmax [2] [%] | SMILES
17 | 6 | 96 | > 1000 | – | – | – | O=C1CCC(N2Cc3cc(C[C@H]4CCCC[C@@H]4NC4CCCOC4)ccc3C2=O)C(=O)N1 (single isomer, unassigned) [Example 261]
18 | 6 | – | > 1000 | 96 | – | – | COCC1CCC(N[C@H]2CCCO[C@@H]2Cc2ccc3c(c2F)CN(C2CCC(=O)NC2=O)C3=O)CC1 (single isomer, unassigned) [Example 264]
19 | 5 | – | > 1000 | 97 | – | – | CC(C)OC1CCC(N[C@H]2CCCO[C@@H]2Cc2ccc3c(c2F)CN(C2CCC(=O)NC2=O)C3=O)CC1 (single isomer, unassigned) [Example 284]
20 | 4 | – | > 1000 | 96 | – | – | CC1(C)CCCC(N[C@H]2CCCC[C@@H]2Cc2ccc3c(c2)CN(C2CCC(=O)NC2=O)C3=O)C1 (single isomer, unassigned) [Example 275]
21 | 4 | 98 | 125 | – | 37 | – | COC1CCC(N[C@H]2CCCC[C@@H]2Cc2ccc3c(c2)CN(C2CCC(=O)NC2=O)C3=O)CC1 (single isomer, unassigned) [Example 278]
22 | 4 | 97 | > 1000 | – | – | – | CCC(C)N[C@H]1CCCC[C@@H]1Cc1ccc2c(c1)CN(C1CCC(=O)NC1=O)C2=O (single isomer, unassigned) [Example 300]
23 | 3 | – | 266 | 96 | – | 40 | N#CCC1CCC(N[C@H]2CCCC[C@@H]2Cc2ccc3c(c2)CN(C2CCC(=O)NC2=O)C3=O)CC1 (single isomer, unassigned) [Example 269]
24 | 3 | 97 | > 1000 | – | – | – | CC1(C)CCCC(N[C@H]2CCCC[C@@H]2Cc2ccc3c(c2)CN(C2CCC(=O)NC2=O)C3=O)C1 (single isomer, unassigned) [Example 276]
25 | 3 | – | 51 | 95 | – | 30 | CC1CCC(N[C@H]2CCCC[C@@H]2Cc2ccc3c(c2)CN(C2CCC(=O)NC2=O)C3=O)CC1 (single isomer, unassigned) [Example 279]
26 | 3 | 98 | 70 | – | 29 | – | CC1CCC(N[C@H]2CCCC[C@@H]2Cc2ccc3c(c2)CN(C2CCC(=O)NC2=O)C3=O)CC1 (single isomer, unassigned) [Example 280]
27 | 2 | – | 45 | 98 | – | 44 | O=C1CCC(N2Cc3cc(C[C@H]4CCCC[C@@H]4NC4CCC5(CC4)CC5(F)F)ccc3C2=O)C(=O)N1 (single isomer, unassigned) [Example 271]
28 | 2 | – | 912 | 97 | – | 59 | CCC(C)N[C@H]1CCCC[C@@H]1Cc1ccc2c(c1F)CN(C1CCC(=O)NC1=O)C2=O (single isomer, unassigned) [Example 294]
29 | 1 | 97 | 283 | – | 43 | – | CCC(C)N[C@H]1CCCC[C@@H]1Cc1ccc2c(c1F)CN(C1CCC(=O)NC1=O)C2=O (single isomer, unassigned) [Example 295]
